SMILES strings stand for the structures. In brackets after ≈: the same amount, converted by molar mass.

104 compounds from PubChem BioAssay AID1996 can be followed below.

For this series the following is noted: buffer; pH 7.4; 200.0 µM.
As to `CCNc1nc(NC(C)C)nc(N(C#N)C(C)C(=O)N(CC)CC)n1` (centres undefined), the solubility (kinetic) was above 52.3 µg/mL. With `CCN(CC)c1ccc(NC(=O)c2ccccc2Br)cc1S(=O)(=O)Nc1ccccc1OC`, the solubility (kinetic) was 0.6 µg/mL (≈ 1.13 µM). `CC(C)N(CCc1ccncc1)C(=S)Nc1cccc(Cl)c1`: the solubility (kinetic) is 43.2 µg/mL (≈ 129 µM).

Consider `O=C1NC(=S)NC(=O)C1C1CCCCC1`, for which the solubility (kinetic) is 30.1 µg/mL (≈ 133 µM).

As for `CN(CC(=O)Nc1ccc(SC(F)F)cc1)C1CCCCC1`, the kinetic solubility was determined as 32.2 µg/mL (≈ 98 µM).

In turn, `Cc1cccc(OCC(=O)NCCCNC(=O)c2ccc(C)nc2)c1` returned a kinetic solubility above 51.2 µg/mL. Next, `COc1ccc(NC(=O)CN(C)CC(=O)NC2CCCCC2C)cc1` (centres undefined): 50.2 µg/mL (≈ 144 µM). Next, `CCN1C(=O)C(=O)N(CC(=O)N(C)CC(=O)Nc2ccccc2C(F)(F)F)C1=O`: above 62.1 µg/mL; `O=C(c1cc(-c2ccncc2)nc2ccccc12)N1CCN(Cc2ccccc2)CC1`: above 61.3 µg/mL; `CCCN(CC1CCCO1)C(=O)CCc1nnc(-c2cc(C)on2)o1` (centres undefined): above 52.3 µg/mL. To `Cc1cccc(C(=O)N/C(=C\c2ccco2)C(=O)N2CCCC2)c1` belongs above 48.7 µg/mL. The compound `Oc1cccc2ccc(/C=C/c3ccccc3Cl)nc12` registered a solubility (kinetic) below 0.6 µg/mL. Next, `COc1ccc(S(=O)(=O)N2CCCCCC2)cc1C(=O)NCc1ccco1`: 46.5 µg/mL (≈ 118 µM); `CCCCC(=O)Nc1cc(Cl)ccc1C(=O)O`: above 38.4 µg/mL; `CCNC(=O)C(=O)Nc1cc2c3c(c1)CCC(=O)N3CCC2`: above 45.2 µg/mL.

For `O=C(O)CSc1ncnc2scc(-c3ccccc3)c12`, the kinetic solubility is above 45.4 µg/mL.

With `COc1ccc(NS(=O)(=O)c2ccc(C(=O)NCC3(N4CCOCC4)CCCCC3)cc2)cc1`, the kinetic solubility was 13.8 µg/mL (≈ 28.3 µM).

`O=C(O)c1cncc(C#Cc2ccccc2)c1` registered a kinetic solubility above 33.5 µg/mL. With `Cc1ccc(N2CCN(C(=S)Nc3ccccc3)CC2)cc1`, the kinetic solubility is 1 µg/mL (≈ 3.21 µM). Take `Cc1ccc(F)cc1NS(=O)(=O)c1ccc(Cl)s1`: the kinetic solubility is above 45.9 µg/mL. On to `CCOc1ccc(-n2ccc(=O)c(C(=O)O)n2)cc1`, for which the solubility (kinetic) was above 39 µg/mL. As for `Cc1cccc(-c2noc(CCC(=O)Nc3ccc(C(N)=O)cc3)n2)c1`, the kinetic solubility came out at 0.5 µg/mL (≈ 1.43 µM). The compound `Cc1cccc(Cn2cnc3c(sc4nc(C)cc(C)c43)c2=O)c1` yielded a kinetic solubility below 0.2 µg/mL. `Cc1[nH]c(=O)[nH]c(=S)c1C(=O)Nc1ccc(Cl)c(Cl)c1` showed a kinetic solubility of 36.9 µg/mL (≈ 112 µM). Consider `Cc1ccc(C(=O)NCC(=O)N2CCCN(C)CC2)cc1C`, for which the solubility (kinetic) was above 45.5 µg/mL.

In the case of `S=c1[nH]c2cc3c(cc2[nH]1)OCCO3`, the kinetic solubility was 19.7 µg/mL (≈ 94.6 µM). `CC1CC(C)CN(C(=O)c2ccc3ccccc3c2)C1` (centres undefined) registered a solubility (kinetic) of 33.3 µg/mL (≈ 125 µM). In turn, `O=C(NC(=O)N1CCCCC1)c1ccc(Cl)cc1` registered a solubility (kinetic) above 40 µg/mL. `COc1ccccc1COC(=O)CN1C(=O)NC2(CCCCC2C)C1=O` (centres undefined) gave a kinetic solubility above 54.1 µg/mL.

`COc1ccc(OC)c(NC(=O)N2CCc3ccccc3C2)c1` returned a solubility (kinetic) above 46.9 µg/mL. The compound `CC(=O)N/C(=C\c1ccccc1)C(=O)OCC(=O)NC1CCS(=O)(=O)C1` (centres undefined) yielded a solubility (kinetic) above 57.1 µg/mL. `COc1ccc(OCC(N)=O)cc1` had a kinetic solubility above 27.2 µg/mL.

Compound `CSc1nsc(SCC(=O)Nc2cccc(C(=O)O)c2)n1` had a solubility (kinetic) above 51.2 µg/mL. Next, `CC1CCN(S(=O)(=O)c2cnc[nH]2)CC1`: above 34.4 µg/mL; `CC(C)c1ccc(NC(=O)N2C[C@H]3C[C@@H](C2)c2cccc(=O)n2C3)cc1`: above 52.7 µg/mL.

`c1ccc(N2CCOCCOCCOCCOCCOCC2)cc1` returned a kinetic solubility above 50.9 µg/mL.

`Cc1ccc2cc([N+](=O)[O-])ccc2n1` showed a solubility (kinetic) of 20.5 µg/mL (≈ 109 µM).

Compound `O=C(NC1CCN(Cc2ccc3ccccc3c2)CC1)c1ccccc1` came in with a solubility (kinetic) of 2.8 µg/mL (≈ 8.13 µM).

In turn, `CNc1nc(N)c([N+](=O)[O-])c(Nc2ccccc2OC)n1` showed a solubility (kinetic) of 0.7 µg/mL (≈ 2.41 µM). In turn, `CCCN(CC(=O)Nc1ccccc1OC)C(=O)C1CCCC1` gave a kinetic solubility above 47.8 µg/mL. The compound `CC(=O)Nc1ccc(S(=O)(=O)N(C)CC(=O)OCC(=O)c2ccc[nH]2)cc1` had a solubility (kinetic) above 59 µg/mL. To `Cc1ccc(OCC(=O)NCc2ccco2)c([N+](=O)[O-])n1` belongs 37.3 µg/mL (≈ 128 µM); to `O=S(=O)(c1ccc(F)cc1)N1CCN(c2ccc(F)cc2)CC1`, 0.5 µg/mL (≈ 1.48 µM); to `CS(=O)(=O)Cc1ccc(C(=O)N2CCN(C(=O)c3cccs3)CC2)cc1`, above 58.9 µg/mL. `Cc1cc(=O)[nH]c(SCC(=O)N2C(C)CCCC2C)n1` (centres undefined) came in with a kinetic solubility of 38.3 µg/mL (≈ 130 µM). `CCCCC(=O)NC(=S)Nc1cc([N+](=O)[O-])ccc1OC`: the solubility (kinetic) was determined as 0.7 µg/mL (≈ 2.25 µM).

The compound `CC(C)(C)S(=O)(=O)Cc1nc(-c2ccc(Cl)c(Cl)c2)cs1` returned a solubility (kinetic) below 0.8 µg/mL. Next, `O=C(CCc1ccccc1)Nc1ccc(S(=O)(=O)NC2=NCCCCC2)cc1`: 56.6 µg/mL (≈ 142 µM); `O=C(NCc1ccccc1F)c1cc(=O)[nH]c2ccccc12`: 4.9 µg/mL (≈ 16.5 µM); `Cc1cccc(C)c1NC(=O)CNC(=O)c1c(C)nn(C)c1Cl`: above 50.2 µg/mL. On to `COc1cc2ccccc2cc1C(=O)Nc1ccc(O)cc1`, for which the kinetic solubility was 0.8 µg/mL (≈ 2.73 µM). Next, `O=C(O)Cc1ccc2oc(-c3ccccn3)nc2c1`: above 38.1 µg/mL; `COc1ccc(CNC(=O)CCN2C(=S)NC(C)(C)CC2C)cc1` (centres undefined): above 52.4 µg/mL; `S=C(NCc1ccccc1)NCc1ccccc1Cl`: 28.4 µg/mL (≈ 97.7 µM). The compound `CCOc1c(C)cnc2c1c(=O)n(Cc1ccccc1F)c(=O)n2C` came in with a solubility (kinetic) of 15.8 µg/mL (≈ 46 µM). Consider `CC(Sc1nc(-c2ccco2)nc2c1c(=O)n(C)c(=O)n2C)C(=O)O` (centres undefined), for which the kinetic solubility was above 54.4 µg/mL. `c1ccc(Oc2cccc(Oc3ccccc3)n2)cc1`: the solubility (kinetic) is below 0.6 µg/mL. In turn, `O=C(NCCNc1ccc([N+](=O)[O-])cc1Cl)c1ccccc1F` came in with a kinetic solubility of 1.8 µg/mL (≈ 5.33 µM). Compound `Br.Nc1ncc([N+](=O)[O-])cc1Br` returned a solubility (kinetic) above 44.8 µg/mL. Compound `COCCn1c(N)c(C(=S)NC(=O)c2cccs2)c(=O)[nH]c1=O` showed a kinetic solubility of 34.6 µg/mL (≈ 97.6 µM).

In turn, `Cc1onc(C(=O)NCCc2ccccc2)c1[N+](=O)[O-]` registered a solubility (kinetic) above 41.3 µg/mL. Next, `Cc1cc(F)ccc1NC(=O)C1CCCO1` (centres undefined): 33.3 µg/mL (≈ 149 µM). Regarding `COc1ccc(CC(=O)NCCC2=CCCCC2)cc1`, the kinetic solubility was above 41 µg/mL.

In turn, `Cc1cc(=O)[nH]c(SCC(=O)NCCC2=CCCCC2)n1` returned a solubility (kinetic) of 38.8 µg/mL (≈ 126 µM).

Turning to `Cc1ccccc1OC(C)C(=O)Nc1cccnc1` (centres undefined), the kinetic solubility was determined as 36.6 µg/mL (≈ 143 µM). `COc1ccc(-c2cc(C(=O)N3CCOCC3)no2)cc1`: the solubility (kinetic) was above 43.2 µg/mL. Next, `Cc1cc(Nc2cc(Cl)cc(Cl)c2)nc(N)n1`: 20 µg/mL (≈ 74.3 µM); `C=CCOc1cccc(C(=O)NC(c2ccccc2)C(C)C)c1` (centres undefined): 1.2 µg/mL (≈ 3.88 µM). `CCOC(=O)Cc1csc(NC(=O)Nc2cccc(OC)c2)n1`: the solubility (kinetic) was 5.8 µg/mL (≈ 17.3 µM). `COc1ccc(NC(=S)N2CCCC2)cc1OC` registered a solubility (kinetic) above 40 µg/mL. The compound `CNC(=O)C(C)N1c2cccc3cccc(c23)S1(=O)=O` (centres undefined) returned a solubility (kinetic) of 34.6 µg/mL (≈ 119 µM).

On to `O=[N+]([O-])c1ccc(OCCO)nc1`, for which the solubility (kinetic) was found to be 26.7 µg/mL (≈ 145 µM). `CCCCNC(=O)N1CCN(c2ccnc3cc(Cl)ccc23)CC1` yielded a kinetic solubility above 52 µg/mL. To `O=C(/C=C/c1ccc2c(c1)OCO2)NCC1CCCO1` (centres undefined) belongs above 41.3 µg/mL. To `COc1ccccc1-c1cc(C(=O)NC2CCCC2)no1` belongs 6.1 µg/mL (≈ 21.3 µM).

In the case of `Cc1cc(C)nc(NC(=O)Cc2ccc(Cl)cc2)c1`, the solubility (kinetic) amounted to 8.6 µg/mL (≈ 31.3 µM).

As for `O=C(NCCN1CCOCC1)c1c(Cl)cccc1Cl`, the kinetic solubility was 44.9 µg/mL (≈ 148 µM). In the case of `CCCC1CCC(c2ccc(/C(N)=N/O)cc2)CC1` (centres undefined), the kinetic solubility is below 0.3 µg/mL.

`COc1ccc2oc(C(=O)NCC3CCCO3)c(C)c2c1` (centres undefined) gave a solubility (kinetic) of 39.8 µg/mL (≈ 138 µM). Compound `O=C(NCc1ccncc1)NC1CCCCC1` came in with a kinetic solubility above 35 µg/mL. Next, `CCOc1ccc(C2Nc3ccccc3C(CC)(CC)O2)cc1` (centres undefined): 2.1 µg/mL (≈ 6.74 µM); `CCCN1C2CCCC1CC(NC(=O)c1ccccc1OC)C2` (centres undefined): above 47.5 µg/mL. In turn, `CC(=O)C1=C(O)C(=O)N(c2ccccn2)C1c1ccc(C)cc1` (centres undefined) came in with a kinetic solubility above 46.3 µg/mL. For `CN(C(=O)COC(=O)c1ccc(Cl)nc1)C1CCS(=O)(=O)C1` (centres undefined), the solubility (kinetic) is above 52 µg/mL. To `Cc1ccc(CCC(=O)Nc2ccc(N(C)C)cc2)o1` belongs 17.5 µg/mL (≈ 64.3 µM); to `O=C(OCc1cccc([N+](=O)[O-])c1)c1cccnc1Cl`, 5.4 µg/mL (≈ 18.5 µM). Take `c1ccc(-c2cnc(CN3CCN(c4ccccc4)CC3)o2)cc1`: the solubility (kinetic) stood at 40 µg/mL (≈ 125 µM). `CCOc1ccc(S(=O)(=O)Nc2ccc(C(=O)NCC(c3ccc(OC)cc3)N3CCOCC3)cc2)cc1` (centres undefined) had a kinetic solubility of 37.9 µg/mL (≈ 70.2 µM). For `Cc1ccc(-n2c(C)c(C)c3c(NCCN(C)C)ncnc32)cc1`, the kinetic solubility turned out to be 37.4 µg/mL (≈ 116 µM). In the case of `COc1ccccc1-c1noc(-c2ccccc2C(=O)NCc2ccco2)n1`, the kinetic solubility was determined as 49.4 µg/mL (≈ 132 µM). With `O=C(OCC(=O)N1CCC(Cc2ccccc2)CC1)c1cccnc1Cl`, the kinetic solubility stood at 46.2 µg/mL (≈ 124 µM). To `O=C(Cc1c[nH]c2ccccc12)NCc1ccncc1` belongs above 39.8 µg/mL. Take `O=C(Oc1ccc2ccc(=O)oc2c1)c1ccc([N+](=O)[O-])cc1`: the kinetic solubility was 0.9 µg/mL (≈ 2.89 µM). `CCOP(=O)(c1ccc(N(C)C)cc1)C(O)c1ccc(C)cc1` (centres undefined) returned a kinetic solubility of 46 µg/mL (≈ 138 µM). `CSc1nc2c(c(=O)[nH]c(=O)n2C)n1Cc1ccccc1`: the solubility (kinetic) was above 45.4 µg/mL. Turning to `CCOC(=O)c1c(C=O)c2ccccc2n1CC`, the kinetic solubility is 3.1 µg/mL (≈ 12.6 µM). In turn, `NC(=Nc1ccccc1)c1ccccc1` displayed a kinetic solubility above 29.4 µg/mL. With `CC(NC(=O)CCN1C(=O)c2ccccc2C1=O)c1ccccc1` (centres undefined), the kinetic solubility is above 48.4 µg/mL. To `Cc1nc(CSc2ccc(Br)cc2)cs1` belongs 8.8 µg/mL (≈ 29.3 µM). Turning to `OCCCc1nc2ccccc2n1CCCCOc1ccccc1`, the kinetic solubility amounted to 44.6 µg/mL (≈ 137 µM). On to `CCOc1ccc(NC(=O)c2cc(=O)[nH]c3ccccc23)cc1`, for which the kinetic solubility came to 1.3 µg/mL (≈ 4.22 µM).

Compound `Cc1cccc(C)c1NC(=O)N1CCCCCCC1` yielded a kinetic solubility of 38.8 µg/mL (≈ 149 µM).

Take `Cc1cc(C(=O)N2CC(C)CC(C)C2)c(C)o1` (centres undefined): the solubility (kinetic) came out at 30.1 µg/mL (≈ 128 µM). Turning to `Cc1ccc(C(=O)NCCNC(=O)c2ccco2)cc1C`, the solubility (kinetic) is 38.8 µg/mL (≈ 136 µM).
